Results published in PubChem BioAssay AID330 (DTP/NCI, 2004).
Values joined by “and” are separate entries in the source; they are usually repeats but may differ in a detail not shown here. Identical values can stand only once. Toxic doses and inconclusive results are not listed. The calls were made as follows: active = survival T/C of 150% or more; inactive = T/C below 125% in these data.

Test system: P388 leukemia ip, CD2F1 mice, survival T/C
Assay: NCI In Vivo Anticancer Drug Screen. Data for tumor model P388 Leukemia (intraperitoneal) in CD2F1 (CDF1) mice
Settings: endpoint: median survival time, higher = longer survival
Procedure, shortened: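 Mice carrying the transplanted tumor received test compound or vehicle. Survival was recorded in each group, and the value is the treated-group measurement divided by that of the vehicle-treated control group.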

[1] = dose: 60.0 mg/kg/injection, schedule: Q01DX005 (ip), vehicle: saline with Tween-80
[2] = dose: 120.0 mg/kg/injection, schedule: Q01DX005 (ip), vehicle: saline with Tween-80
[3] = dose: 240.0 mg/kg/injection, schedule: Q01DX005 (ip), vehicle: saline with Tween-80
[4] = dose: 50.0 mg/kg/injection, schedule: Q01DX005 (ip), vehicle: saline with Tween-80
[5] = dose: 100.0 mg/kg/injection, schedule: Q01DX005 (ip), vehicle: saline with Tween-80
[6] = dose: 200.0 mg/kg/injection, schedule: Q01DX005 (ip), vehicle: saline with Tween-80
[7] = dose: 100.0 mg/kg/injection, schedule: Q04DX002 (ip), vehicle: saline with Tween-80
[8] = dose: 200.0 mg/kg/injection, schedule: Q04DX002 (ip), vehicle: saline with Tween-80
[9] = dose: 400.0 mg/kg/injection, schedule: Q04DX002 (ip), vehicle: saline with Tween-80
[10] = dose: 200.0 mg/kg/injection, schedule: Q01DX001 (ip), vehicle: saline with Tween-80
[11] = dose: 400.0 mg/kg/injection, schedule: Q01DX001 (ip), vehicle: saline with Tween-80
[12] = dose: 25.0 mg/kg/injection, schedule: Q01DX009 (ip), vehicle: suspension in saline
[13] = dose: 50.0 mg/kg/injection, schedule: Q01DX009 (ip), vehicle: suspension in saline
[14] = dose: 100.0 mg/kg/injection, schedule: Q01DX009 (ip), vehicle: suspension in saline
[15] = dose: 25.0 mg/kg/injection, schedule: Q01DX009 (ip), vehicle: saline with Tween-80
[16] = dose: 50.0 mg/kg/injection, schedule: Q01DX009 (ip), vehicle: saline with Tween-80
[17] = dose: 100.0 mg/kg/injection, schedule: Q01DX009 (ip), vehicle: saline with Tween-80
[18] = dose: 200.0 mg/kg/injection, schedule: Q01DX009 (ip), vehicle: saline with Tween-80

Measured: T/C

Cc1cc2n(n1)C(=O)CC(=O)C2
inactive: [1] 98 % of control | [2] 100 % of control | [3] 109 % of control

Cc1ccc(SSC(=S)N2CCOCC2)cc1
inactive: dose: 100.0 mg/kg/injection, schedule: Q01DX001 (ip), vehicle: Klucel (hydroxypropylcellulose) (HPC) 104 % of control | dose: 200.0 mg/kg/injection, schedule: Q01DX001 (ip), vehicle: Klucel (hydroxypropylcellulose) (HPC) 96 % of control | dose: 400.0 mg/kg/injection, schedule: Q01DX001 (ip), vehicle: Klucel (hydroxypropylcellulose) (HPC) 101 % of control

C=C1C(=O)C2CCN1CC2
inactive: [4] 105 % of control and 110 % of control and 113 % of control | [5] 113 % of control and 116 % of control (2×) | [6] 111 % of control and 116 % of control

Nc1nc(-c2ccccc2)cc(-c2cc(-c3ccccc3)nc(N)n2)n1
inactive: dose: 60.0 mg/kg/injection, schedule: Q01DX005 (ip), vehicle: saline 100 % of control | dose: 120.0 mg/kg/injection, schedule: Q01DX005 (ip), vehicle: saline 102 % of control | dose: 240.0 mg/kg/injection, schedule: Q01DX005 (ip), vehicle: saline 100 % of control

CN1CCN(C(=O)c2cccc3cccc(C(=O)O)c23)CC1
inactive: dose: 60.0 mg/kg/injection, schedule: Q01DX005 (ip), vehicle: water 103 % of control | dose: 120.0 mg/kg/injection, schedule: Q01DX005 (ip), vehicle: water 93 % of control | dose: 240.0 mg/kg/injection, schedule: Q01DX005 (ip), vehicle: water 100 % of control

CCOC(=O)n1oc2c(Br)cc(Br)cc2c1=O
inactive: dose: 50.0 mg/kg/injection, schedule: Q04DX002 (ip), vehicle: Klucel (hydroxypropylcellulose) (HPC) 105 % of control | dose: 100.0 mg/kg/injection, schedule: Q04DX002 (ip), vehicle: Klucel (hydroxypropylcellulose) (HPC) 99 % of control | dose: 200.0 mg/kg/injection, schedule: Q04DX002 (ip), vehicle: Klucel (hydroxypropylcellulose) (HPC) 101 % of control

CC(=O)OC1C(=O)C(C)(C)CN(C(C)(C)C)CC1(C)C (configuration not stated)
inactive: dose: 50.0 mg/kg/injection, schedule: Q01DX001 (ip), vehicle: saline sonified 100 % of control | dose: 100.0 mg/kg/injection, schedule: Q01DX001 (ip), vehicle: saline sonified 104 % of control | dose: 200.0 mg/kg/injection, schedule: Q01DX001 (ip), vehicle: saline sonified 95 % of control

Clc1ccc(CN2CCCN(Cc3ccc(Cl)cc3)C2c2cc3ccccc3c3ccccc23)cc1
inactive: [4] 99 % of control | [5] 97 % of control | [6] 93 % of control

CC1=C(C)C(=O)c2cc3c(-c4ccccc4)oc(-c4ccccc4)c3cc2C1=O
inactive: dose: 12.5 mg/kg/injection, schedule: Q01DX005 (ip), vehicle: saline with Tween-80 93 % of control | dose: 25.0 mg/kg/injection, schedule: Q01DX005 (ip), vehicle: saline with Tween-80 95 % of control | [4] 86 % of control and 96 % of control

COC(=O)/C(=C/c1ccc(/C=C(/C(=O)O)c2ccc(OC)cc2)o1)c1ccc(OC)cc1
inactive: [7] 96 % of control | [8] 92 % of control | [9] 101 % of control

CCCCCCCCCCCCNC(=O)C[n+]1cccc(C(=O)Nc2ccccc2)c1
inactive: dose: 3.0 mg/kg/injection, schedule: Q01DX009 (ip), vehicle: saline with Tween-80 100 % of control | dose: 6.0 mg/kg/injection, schedule: Q01DX009 (ip), vehicle: saline with Tween-80 104 % of control | dose: 12.0 mg/kg/injection, schedule: Q01DX009 (ip), vehicle: saline with Tween-80 95 % of control

CC(/C=N/Nc1ccccc1)=N\N=c1/scc(-c2ccc(Cl)cc2)n1-c1ccc(Cl)cc1
inactive: [4] 86 % of control | [5] 92 % of control | [6] 94 % of control

Cc1cc(Nc2cc(=O)[nH]c(=O)[nH]2)ccc1N
inactive: [1] 97 % of control | [2] 97 % of control | [3] 93 % of control

C(=N/n1nnc(-c2ccccc2)n1)/c1ccccc1
inactive: [4] 101 % of control | [5] 92 % of control

CCOC(=O)CCN(CCN(C)C)c1cc(O)c2c(c1O)C(=O)c1ccccc1C2=O
inactive: [4] 121 % of control | [5] 120 % of control

O=C1NC(=S)N/C1=C/c1ccc2c(c1)CCC2
inactive: dose: 100.0 mg/kg/injection, schedule: Q01DX001 (ip), vehicle: saline with Tween-80 100 % of control | [10] 100 % of control | [11] 95 % of control

CC(=O)Oc1cc(OC(C)=O)c2c(c1)C(=O)c1cc(C)cc(OC(C)=O)c1C2=O
inactive: [7] 90 % of control and 96 % of control | [8] 90 % of control | [9] 90 % of control

COc1cc2c(O)cc(C(=O)O)c(-c3cc(OC)c(OC)c(OC)c3)c2cc1OC
inactive: [4] 98 % of control | [5] 103 % of control | [6] 100 % of control

C/C(=N\N(C)C)C1=C(O)C(C(C)C)NC1=O (configuration not stated)
inactive: [1] 100 % of control | [2] 105 % of control | [3] 98 % of control

O=C(O)CCC1(C(=O)O)NCCc2c1[nH]c1ccccc21 (configuration not stated)
inactive: [12] 95 % of control | [13] 99 % of control | [14] 98 % of control

CN(Cc1cnc2nc(N)[nH]c(=O)c2c1)c1ccc(C(=O)NC(CCC(=O)O)C(=O)O)cc1 (configuration not stated)
inactive: [4] 98 % of control | [5] 100 % of control | [6] 111 % of control

CC1CN1P(=S)(N1CCCCC1)N1CC1C (configuration not stated)
inactive: [12] 100 % of control | [13] 96 % of control | [14] 102 % of control | dose: 200.0 mg/kg/injection, schedule: Q01DX009 (ip), vehicle: suspension in saline 105 % of control

CC1(C)COC(=O)C(C)(C2(C)NC(C)(C)COC2=O)N1 (configuration not stated)
inactive: [15] 99 % of control | [16] 102 % of control | [17] 101 % of control | [10] 95 % of control | [18] 114 % of control | [11] 97 % of control | dose: 400.0 mg/kg/injection, schedule: Q01DX009 (ip), vehicle: saline with Tween-80 106 % of control | dose: 800.0 mg/kg/injection, schedule: Q01DX001 (ip), vehicle: saline with Tween-80 101 % of control

NCCSSc1ccc([N+](=O)[O-])cc1
inactive: dose: 12.5 mg/kg/injection, schedule: Q04DX002 (ip), vehicle: Klucel (hydroxypropylcellulose) (HPC) 95 % of control | dose: 25.0 mg/kg/injection, schedule: Q04DX002 (ip), vehicle: Klucel (hydroxypropylcellulose) (HPC) 86 % of control

C=CCNC(=S)N=Nc1c(O)[nH]c2ccccc12
inactive: [16] 94 % of control | [17] 91 % of control | [18] 88 % of control

O=C(NCCN(C(=O)C12CC3CC(CC(C3)C1)C2)c1ccc(F)cc1)C12CC3CC(CC(C3)C1)C2
inactive: dose: 6.25 mg/kg/injection, schedule: Q01DX009 (ip), vehicle: saline with Tween-80 105 % of control | dose: 12.5 mg/kg/injection, schedule: Q01DX009 (ip), vehicle: saline with Tween-80 92 % of control | [15] 100 % of control

CC1(C)OC1CS(=O)c1ccccc1 (configuration not stated)
inactive: [16] 101 % of control | dose: 66.0 mg/kg/injection, schedule: Q01DX009 (ip), vehicle: saline with Tween-80 99 % of control | [17] 99 % of control and 121 % of control | [18] 114 % of control

CCOC(=O)C1=CC2CCOC2O1 (configuration not stated)
inactive: [1] 95 % of control | [2] 95 % of control | [3] 101 % of control

ON=C(C(Cl)(Cl)Cl)C(Cl)(Cl)Cl
inactive: [1] 100 % of control | [2] 100 % of control | [3] 97 % of control

O=c1oc2c(Cl)cc(Cl)cc2cc1-c1nc2ccccc2[nH]1
inactive: dose: 25.0 mg/kg/injection, schedule: Q01DX005 (ip), vehicle: Klucel (hydroxypropylcellulose) (HPC) 92 % of control | dose: 50.0 mg/kg/injection, schedule: Q01DX005 (ip), vehicle: Klucel (hydroxypropylcellulose) (HPC) 92 % of control | dose: 100.0 mg/kg/injection, schedule: Q01DX005 (ip), vehicle: Klucel (hydroxypropylcellulose) (HPC) 92 % of control | dose: 200.0 mg/kg/injection, schedule: Q01DX005 (ip), vehicle: Klucel (hydroxypropylcellulose) (HPC) 92 % of control

COC(=O)NN(C(=O)OC)C12CCCC1N(C(=O)OC)N(C(=O)OC)c1c2ccc2ccccc12 (configuration not stated)
inactive: dose: 60.0 mg/kg/injection, schedule: Q01DX005 (ip), vehicle: Klucel (hydroxypropylcellulose) (HPC) 103 % of control | dose: 120.0 mg/kg/injection, schedule: Q01DX005 (ip), vehicle: Klucel (hydroxypropylcellulose) (HPC) 103 % of control | dose: 240.0 mg/kg/injection, schedule: Q01DX005 (ip), vehicle: Klucel (hydroxypropylcellulose) (HPC) 96 % of control

C=C1C(=O)OC2C1C(OC(=O)/C(C)=C/C)CC(O)(CCl)C1C(OC(C)=O)C=C(C)C21O (configuration not stated)
inactive: [15] 117 % of control | [16] 109 % of control | [17] 114 % of control | [18] 108 % of control
